This passage reports IC50 results from ChEMBL document CHEMBL2390843, “Design, synthesis and antitumour activity of bisquinoline derivatives connected by 4-oxy-3-fluoroaniline moiety” (Eur J Med Chem, 2013).

Assay [1] can be described thus: Cytotoxicity against human U87MG cells after 72 hrs by MTT assay. The class given is functional, cell-based, U-87MG ATCC. The conditions noted are these: U-87 MG.
Another assay concerns HT-29. Briefly: Cytotoxicity against human HT-29 cells after 72 hrs by MTT assay. The conditions noted are these: HT-29, 72 h. (In general: Tetrazolium dyes change colour on reduction, which living cells bring about.)
The test system of another assay is MKN-45. Briefly: Cytotoxicity against human MKN45 cells after 72 hrs by MTT assay. Particulars: MKN-45, 72 h.
Assay [2] is described as follows: Cytotoxicity against human H460 cells after 72 hrs by MTT assay. Particulars: NCI-H460, 72 h.
The test system of a further assay is SMMC-7721. Kind of assay: Cytotoxicity against human SMMC7721 cells after 72 hrs by MTT assay. The conditions noted are these: SMMC-7721, 72 h.

Take `COc1cc2c(Oc3ccc(NC(=O)c4cc(-c5ccc(C)cc5)nc5ccc(F)cc45)cc3F)ccnc2cc1OCCCN1CCC(C)CC1`: the IC50 was 2000 nM in assay [1], 420 nM in the assay with HT-29, 260 nM in the assay with MKN-45 and 480 nM in assay [2].
Regarding `COc1cc2c(Oc3ccc(NC(=O)c4cc(-c5ccc(C)cc5)nc5ccccc45)cc3F)ccnc2cc1OCCCN1CCCC1`, the IC50 stood at 850 nM in the assay with HT-29, 520 nM in the assay with SMMC-7721, 300 nM with MKN-45 and 240 nM in assay [2].
`COc1cc2c(Oc3ccc(NC(=O)c4cc(-c5ccc(F)cc5)nc5ccccc45)cc3F)ccnc2cc1OCCCN1CCCCC1`: the IC50 in assay [1] worked out at 980 nM; in the assay on HT-29, 130 nM; with SMMC-7721, 74 nM; in the assay with MKN-45, 28 nM; in assay [2], 21 nM.
`COc1cc2c(Oc3ccc(NC(=O)c4cc(-c5ccc(Cl)cc5Cl)nc5ccc(F)cc45)cc3F)ccnc2cc1OCCCN1CCCCC1`: the IC50 in assay [1] turned out to be 1040 nM; in the assay with HT-29 it was 530 nM; with MKN-45, 250 nM; in assay [2] it was 310 nM.
For the molecule `COc1cccc(-c2cc(C(=O)Nc3ccc(Oc4ccnc5cc(OCCCN6CCOCC6)c(OC)cc45)c(F)c3)c3ccccc3n2)c1`, the IC50 turned out to be 3050 nM with HT-29, 1130 nM in the assay with SMMC-7721, 110 nM with MKN-45 and 560 nM in assay [2].
As for `COc1cc2c(Oc3ccc(NC(=O)c4cc(-c5ccccc5)nc5ccccc45)cc3F)ccnc2cc1OCCCN1CCC(C)CC1`, the IC50 in assay [1] was determined as 920 nM; in the assay on HT-29, 120 nM; in the assay on SMMC-7721, 160 nM; in the assay on MKN-45, 19 nM; in assay [2], 68 nM.
Consider `COc1ccc(-c2cc(C(=O)Nc3ccc(Oc4ccnc5cc(OCCCN6CCCCC6)c(OC)cc45)c(F)c3)c3ccccc3n2)cc1`, for which the IC50 in assay [1] came to 1360 nM; in the assay on HT-29, 690 nM; in the assay on SMMC-7721 it was 210 nM; with MKN-45, 210 nM; in assay [2] it was 290 nM.
`COc1cc2c(Oc3ccc(NC(=O)c4cc(-c5ccc(C(F)(F)F)cc5)nc5ccccc45)cc3F)ccnc2cc1OCCCN1CCOCC1`: the IC50 in assay [1] turned out to be 1010 nM; in the assay with HT-29 it was 230 nM; with SMMC-7721, 100 nM; in the assay with MKN-45, 12 nM; in assay [2], 68 nM.
As for `COc1cc2c(Oc3ccc(NC(=O)c4cc(-c5ccccc5)nc5ccc(F)cc45)cc3F)ccnc2cc1OCCCN1CCCC1`, the 50% inhibitory concentration (IC50) was determined as 960 nM in assay [1], 160 nM in the assay with HT-29, 110 nM with MKN-45 and 90 nM in assay [2].
Turning to `COc1cc2c(Oc3ccc(NC(=O)c4cc(-c5ccc(F)cc5)nc5ccc(F)cc45)cc3F)ccnc2cc1OCCCN1CCOCC1`, the IC50 in assay [1] came to 2150 nM; in the assay with HT-29, 250 nM; with MKN-45, 51 nM; in assay [2], 27 nM.
Take `COc1cccc(-c2cc(C(=O)Nc3ccc(Oc4ccnc5cc(OCCCN6CCCCC6)c(OC)cc45)c(F)c3)c3ccccc3n2)c1`: the IC50 with HT-29 worked out at 1740 nM; in the assay on SMMC-7721, 380 nM; in the assay on MKN-45, 360 nM; in assay [2] it was 210 nM.
The corresponding values for `COc1ccc(-c2cc(C(=O)Nc3ccc(Oc4ccnc5cc(OCCCN6CCOCC6)c(OC)cc45)c(F)c3)c3ccccc3n2)cc1` are 3190 nM, 1180 nM, 160 nM and 750 nM.
On to `COc1cc2c(Oc3ccc(NC(=O)c4cc(-c5ccc(C)cc5)nc5ccc(F)cc45)cc3F)ccnc2cc1OCCCN1CCOCC1`, for which the IC50 turned out to be 820 nM in assay [1], 390 nM in the assay with HT-29, 320 nM with MKN-45 and 440 nM in assay [2].
For `COc1cccc(-c2cc(C(=O)Nc3ccc(Oc4ccnc5cc(OCCCN6CCCCC6)c(OC)cc45)c(F)c3)c3cc(F)ccc3n2)c1`, the IC50 in assay [1] was determined as 1610 nM; in the assay on HT-29, 2500 nM; in the assay with MKN-45, 690 nM; in assay [2], 1000 nM.
The corresponding values for `COc1cc2c(Oc3ccc(NC(=O)c4cc(-c5cccc(Cl)c5)nc5ccc(F)cc45)cc3F)ccnc2cc1OCCCN1CCOCC1` are 1060 nM, 1200 nM, 60 nM and 68 nM.
For `COc1cccc(-c2cc(C(=O)Nc3ccc(Oc4ccnc5cc(OCCCN6CCCC6)c(OC)cc45)c(F)c3)c3ccccc3n2)c1`, the IC50 in the assay on HT-29 is 1020 nM; with SMMC-7721, 790 nM; in the assay on MKN-45, 430 nM; in assay [2], 290 nM.
Regarding `COc1cc2c(Oc3ccc(NC(=O)c4cc(-c5cccc(Cl)c5)nc5ccc(F)cc45)cc3F)ccnc2cc1OCCCN1CCC(C)CC1`, the IC50 amounted to 110 nM in assay [1], 92 nM in the assay on HT-29, 10 nM in the assay on MKN-45 and 60 nM in assay [2].
With `COc1cc2c(Oc3ccc(NC(=O)c4cc(-c5cccc(Cl)c5)nc5ccccc45)cc3F)ccnc2cc1OCCCN1CCCCC1`, the IC50 in assay [1] is 150 nM; in the assay with HT-29, 62 nM; in the assay on SMMC-7721 it was 30 nM; in the assay on MKN-45, 11 nM; in assay [2], 11 nM.
Take `COc1cc2c(Oc3ccc(NC(=O)c4cc(-c5cccc(Cl)c5)nc5ccccc45)cc3F)ccnc2cc1OCCCN1CCOCC1`: the IC50 worked out at 1470 nM in assay [1]; 1080 nM with HT-29; 320 nM with SMMC-7721; 35 nM in the assay with MKN-45; 80 nM in assay [2].
The corresponding values for `COc1cc2c(Oc3ccc(NC(=O)c4cc(-c5cccc(Cl)c5)nc5ccccc45)cc3F)ccnc2cc1OCCCN1CCC(C)CC1` are 580 nM, 100 nM, 80 nM, 30 nM and 65 nM.
Consider `COc1ccc(-c2cc(C(=O)Nc3ccc(Oc4ccnc5cc(OCCCN6CCCC6)c(OC)cc45)c(F)c3)c3cc(F)ccc3n2)cc1`, for which the IC50 in assay [1] came to 930 nM; with HT-29, 610 nM; with MKN-45, 170 nM; in assay [2], 250 nM.
Turning to `COc1cccc(-c2cc(C(=O)Nc3ccc(Oc4ccnc5cc(OCCCN6CCC(C)CC6)c(OC)cc45)c(F)c3)c3cc(F)ccc3n2)c1`, the IC50 in assay [1] was found to be 840 nM; in the assay with HT-29 it was 1210 nM; with MKN-45, 730 nM; in assay [2], 840 nM.
With `COc1cc2c(Oc3ccc(NC(=O)c4cc(-c5ccccc5)nc5ccccc45)cc3F)ccnc2cc1OCCCN1CCOCC1`, the IC50 in assay [1] is 1140 nM; in the assay on HT-29 it was 1520 nM; in the assay with SMMC-7721, 330 nM; with MKN-45, 91 nM; in assay [2], 190 nM.
With `COc1cc2c(Oc3ccc(NC(=O)c4cc(-c5ccc(C)cc5)nc5ccccc45)cc3F)ccnc2cc1OCCCN1CCOCC1`, the IC50 was 3560 nM with HT-29, 1520 nM with SMMC-7721, 830 nM with MKN-45 and 1100 nM in assay [2].
The corresponding values for `COc1ccc(-c2cc(C(=O)Nc3ccc(Oc4ccnc5cc(OCCCN6CCC(C)CC6)c(OC)cc45)c(F)c3)c3ccccc3n2)cc1` are 1110 nM, 450 nM, 320 nM and 110 nM.
As for `COc1cc2c(Oc3ccc(NC(=O)c4cc(-c5ccc(Cl)c(Cl)c5)nc5ccccc45)cc3F)ccnc2cc1OCCCN1CCCCC1`, the IC50 with HT-29 worked out at 1210 nM; in the assay on SMMC-7721, 770 nM; with MKN-45 it was 730 nM; in assay [2], 820 nM.
`COc1cc2c(Oc3ccc(NC(=O)c4cc(-c5ccccc5)nc5ccc(F)cc45)cc3F)ccnc2cc1OCCCN1CCCCC1`: the IC50 came out at 690 nM in assay [1], 120 nM in the assay with HT-29, 30 nM in the assay on MKN-45 and 32 nM in assay [2].
In the case of `COc1ccc(-c2cc(C(=O)Nc3ccc(Oc4ccnc5cc(OCCCN6CCCCC6)c(OC)cc45)c(F)c3)c3cc(F)ccc3n2)cc1`, the IC50 came to 1100 nM in assay [1], 600 nM with HT-29, 260 nM in the assay with MKN-45 and 240 nM in assay [2].
Take `COc1cc2c(Oc3ccc(NC(=O)c4cc(-c5ccc(C)cc5)nc5ccccc45)cc3F)ccnc2cc1OCCCN1CCC(C)CC1`: the IC50 in the assay with HT-29 was determined as 3150 nM; with SMMC-7721, 1260 nM; in the assay on MKN-45, 770 nM; in assay [2] it was 880 nM.
With `COc1cc2c(Oc3ccc(NC(=O)c4cc(-c5ccccc5)nc5ccccc45)cc3F)ccnc2cc1OCCCN1CCCCC1`, the IC50 was determined as 1490 nM in assay [1]; 530 nM in the assay with HT-29; 290 nM in the assay with SMMC-7721; 15 nM in the assay on MKN-45; 110 nM in assay [2].
In the case of `COc1cc2c(Oc3ccc(NC(=O)c4cc(-c5cccc(Cl)c5)nc5ccc(F)cc45)cc3F)ccnc2cc1OCCCN1CCCC1`, the IC50 turned out to be 990 nM in assay [1], 670 nM with HT-29, 67 nM in the assay on MKN-45 and 72 nM in assay [2].
For the molecule `COc1cc2c(Oc3ccc(NC(=O)c4cc(-c5ccc(Cl)c(Cl)c5)nc5ccccc45)cc3F)ccnc2cc1OCCCN1CCCC1`, the IC50 was 1960 nM in the assay on HT-29, 340 nM in the assay with SMMC-7721, 170 nM in the assay with MKN-45 and 400 nM in assay [2].
With `COc1cc2c(Oc3ccc(NC(=O)c4cc(-c5ccc(C)cc5)nc5ccc(F)cc45)cc3F)ccnc2cc1OCCCN1CCCCC1`, the IC50 stood at 1050 nM in assay [1], 500 nM with HT-29, 170 nM with MKN-45 and 260 nM in assay [2].

As a reminder, the IC50 is the concentration needed to halve the response being measured. Lower therefore signals greater potency.
